From patent US20100323950A1, “USE OF BETA-MELANOTROPIN AS A THERAPEUTIC AGENT, EG FOR THE TREATMENT OF AIDS OR ALZHEIMER” (priority 2007, published 2010)

Test system: drug-resistant Mycobacterium tuberculosis
Conditions: Mycobacterium tuberculosis resistant to PAS, streptomycin, INH; peptide 10 micrograms per ml; seven days

CSCC[C@H](NC(=O)[C@H](CCCNC(=N)N)NC(=O)[C@H](Cc1ccc(O)cc1)NC(=O)[C@@H]1CCCN1C(=O)CNC(=O)[C@H](CCC(=O)O)NC(=O)[C@H](CC(=O)O)NC(=O)[C@H](CCCCN)NC(=O)[C@H](CCCCN)NC(=O)[C@H](CCC(=O)O)NC(=O)[C@H](C)N)C(=O)N[C@@H](CCC(=O)O)C(=O)N[C@@H](Cc1c[nH]cn1)C(=O)N[C@@H](Cc1ccccc1)C(=O)N[C@@H](CCCNC(=N)N)C(=O)N[C@@H](Cc1c[nH]c2ccccc12)C(=O)NCC(=O)N[C@@H](CO)C(=O)N1CCC[C@H]1C(=O)N1CCC[C@H]1C(=O)N[C@@H](CCCCN)C(=O)N[C@@H](CC(=O)O)C(=O)O [Beta MSH] was tested. Which “% inhibition” value did it give?
The value was 0.0%.
